Data taken from patent US5177075A, “Substituted dihydroisoquinolinones and related compounds as potentiators of the lethal effects of radiation and certain chemotherapeutic agents; selected compounds, analogs and process” (priority 1991, dated 1993).
Structures can show the parent of a compound that is named as a salt. Where two headings read alike, the source gives them in different places.

Tests used:
[1] = target: T1, Poly(ADP-ribose) synthetase (Bos taurus, UniProt P18493); experiment: Inhibition of Poly(ADP-ribose) synthetase; assay type: biochemical, calf
T1 construct: Poly (ADP-ribose) synthetase from calf thymus; from tissue; host or cells: calf thymus
T1 sequence (P18493 whole entry): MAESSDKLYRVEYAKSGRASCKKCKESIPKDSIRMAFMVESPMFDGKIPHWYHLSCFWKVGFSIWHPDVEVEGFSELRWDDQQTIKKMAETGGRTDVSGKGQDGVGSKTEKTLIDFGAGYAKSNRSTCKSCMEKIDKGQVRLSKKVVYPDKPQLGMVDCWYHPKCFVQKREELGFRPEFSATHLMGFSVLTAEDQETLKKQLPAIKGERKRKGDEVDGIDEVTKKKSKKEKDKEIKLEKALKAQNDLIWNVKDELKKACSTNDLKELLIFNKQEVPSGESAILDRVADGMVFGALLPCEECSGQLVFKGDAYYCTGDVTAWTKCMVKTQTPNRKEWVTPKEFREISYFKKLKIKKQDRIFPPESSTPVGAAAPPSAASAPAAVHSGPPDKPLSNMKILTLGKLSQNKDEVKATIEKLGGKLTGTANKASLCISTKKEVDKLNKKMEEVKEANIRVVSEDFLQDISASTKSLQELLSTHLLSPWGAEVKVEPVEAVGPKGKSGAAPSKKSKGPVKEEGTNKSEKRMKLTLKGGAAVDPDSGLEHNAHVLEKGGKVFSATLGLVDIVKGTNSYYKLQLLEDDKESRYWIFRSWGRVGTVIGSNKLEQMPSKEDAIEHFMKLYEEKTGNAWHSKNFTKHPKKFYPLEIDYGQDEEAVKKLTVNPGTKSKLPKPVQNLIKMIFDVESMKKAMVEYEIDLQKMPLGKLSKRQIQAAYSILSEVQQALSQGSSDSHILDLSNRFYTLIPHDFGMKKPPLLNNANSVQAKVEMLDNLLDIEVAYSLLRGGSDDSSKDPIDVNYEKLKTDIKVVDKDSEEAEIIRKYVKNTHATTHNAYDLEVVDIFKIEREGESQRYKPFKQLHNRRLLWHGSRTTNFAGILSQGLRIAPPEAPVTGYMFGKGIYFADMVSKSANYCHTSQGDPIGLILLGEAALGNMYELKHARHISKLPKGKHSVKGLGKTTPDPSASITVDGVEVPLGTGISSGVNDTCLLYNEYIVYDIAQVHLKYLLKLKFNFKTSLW
Experimental: The enzyme assay is performed by placing the following in small glass tubes kept at 4°: 100 μl of buffer consisting of 0.5M Tris-HCl pH 8.0, 50 mM MgCl2, and 5 mM dithiothreitol; 50 μl of 1 mM [^3 H]nicotinamide adenine dinucleotide having a specific activity of 15 μCi/μmol; 100 μl of calf thymus DNA (0.3 mg/ml in water); 50 μl of calf thymus histone (Sigma, Type IIA, 0.5 mg/ml); 50 μl of inhibitor or inhibitor solvent; 150 μl of enzyme. The components are thoroughly mixed and warmed to 30° C. in a water bath. After 15 minutes the reaction is stopped by adding 2 ml of ice cold 15% trichloroacetic acid and the tubes are placed on ice for 15 minutes. The precipitate is collected on glass fiber filters and washed five times with ice cold 15% trichloroacetic acid. The filters were dried and radioactivity determined in a liquid scintillation counter.

V79 cells = experiment: In vitro radiosensitizing activity at 37°: shoulder modifying effects (reduction in Dq); assay type: cell-based; conditions: for Shoulder Modification (% Reduction in DQ): hypoxic V79 cells, class symbols
Experimental: The shoulder region represents the inherent repair capabilities of a given cell line. […] To determine the hypoxic x-ray dose response, cells are rendered hypoxic four hours prior to the addition of the test compound by placing them in a 37° C. incubator within an anaerobic glove chamber (Forma). […] Drug is added (0.1 ml into 2 ml media in petri dish) within the anaerobic chamber and drug treatment is at the highest nontoxic dose for one hour at 37°. The oxic x-ray dose response is determined in a similar manner except that all manipulations are carried out in air. […] Cytotoxicity controls (drug only, no irradiation) are included as well as oxic and hypoxic untreated controls (irradiation only, no drug). Immediately following irradiation, cells are rinsed twice with 2 ml fresh media prior to the addition of 5 ml of fresh media. The cells are then incubated at 37° C. After six days, dishes are stained with crystal violet and colonies of 50 or more cells are counted to determine percent surviving cells versus x-ray dose. […] This is expressed by percent reduction in Dq where Dq is defined as the dose at the intersection of the regression line for the logarithmic portion of the survival curve with the 100% survival level. This is taken to represent the width of the shoulder region of the survival curve.

L1210 cells = experiment: Inhibition of the repair of radiation-induced DNA damage as assessed by alkaline elution; assay type: cell-based
Experimental: Inhibition of the Repair of Radiation-Induced DNA Damage as Assessed by Alkaline Elution The basic alkaline elution assay is carried out according to the procedure of K. W. Kohn, […]. Erickson, and L. A. Zwelling in DNA Repair: A Laboratory Manual of Research Procedures (eds. E. C. Freidburg and […]) with slight modifications. Briefly, suspension cultures of exponentially growing L1210 cells (total of 4×10^6 cells) are labeled with 0.02 μCi/ml of [^14 C] thymidine plus 1 nmol/ml of unlabeled thymidine for 24 hours prior to use. L1210 cells used as an internal standard are grown in media supplemented with 0.1 μCi/ml of [^3 H]thymidine and 1 nmol/ml unlabeled thymidine. For the elution protocol cells are removed from the culture flasks, centrifuged, and resuspended in fresh media. Drug treatment for experimental cells is for one hour at 37°. After the treatment period control and drug-treated cells are given a dose of 10 Gy of x-rays and incubated at 37° C. for 10 minutes to allow for repair. Samples consisting of 5×10^5 cells contained in 5 ml of ice cold PBS are deposited directly on 25 mm polycarbonate filters (2 micron pore size). The cells are washed with 5 ml of cold PBS, then lysed by the addition of 5 ml of lysis solution (0.2% SDS, 0.25M tetrasodium EDTA pH 9.7). All procedures commencing at the time of lysis are carried out in the dark. Subsequent to lysis samples are treated with 2 ml of lysis solution containing proteinase-K (0.5 mg/ml) for one hour. The filters are then eluted with tetrapropyl ammonium hydroxide/0.025M EDTA (free acid form)/0.1% SDS, pH 12.1, at a constant flow rate of 0.037 ml/min. Fractions of 2 ml are collected in scintillation vials. […] To each fraction collected and the filter solution 15 ml of modified Ready-Gel scintillation fluid containing 0.7% acetic acid is added. The frequency of single-stranded DNA breakage was calculated as described by Kohn, et al. The data is corrected for the number of single-strand breaks in the […] samples (~20%).

KHT fibrosarcoma tumors = experiment: In vivo assay for radiosensitization activity; set-up: species or system hybrid mice (B6C3F1); conditions: for In Vivo Radiosensitizing Activity: KHT tumors in mice, relative to misonidazole
Experimental: In Vivo Assay for Radiosensitization Activity
For this assay KHT fibrosarcoma tumors in hybrid mice (B6C3F1) weighing 20-25 g are used. The mice are randomized and implanted SC with the appropriate tumor brei on Day 0 (one implant/mouse). Samples from each donor tumor and/or from the final brei are incubated in thioglycolate media as a check for gross bacterial contamination. On Day 8 tumors are measured in two dimensions with calipers and animals with tumor masses in the range of 500 to 700 mg are selected for the assay. At this point the tumors contain approximately 20% hypoxic cells.
The test agents are dissolved in any of several vehicles at a fixed injection dose equal to 90-100% of the maximum tolerated dose. Additional suitable controls of test compound (no irradiation) and vehicle-injected and irradiated mice are also included. Mice are irradiated at a dose of 1700 RADs at various intervals both prior to and after intraperitoneal administration of the test agents.
By using these intervals, an indication of both the optimum time to irradiate and the degree of sensitization are obtained. Irradiation of the KHT tumors is by whole body irradiation of animals in movement restricting jigs at different total exposures as indicated. The x-ray source is a Phillips 320 KV instrument with a half-value thickness of 2.0 mm copper and a target to source distance of 17 inches, with a delivery rate of 2.0 Gy/minute. Animals are monitored for signs of acute toxicity after treatment.
After incubation for 12-16 days at 37° and staining, the colonies are counted. The data are expressed as % control versus time.

[2] = 30° C., 15 minutes, [3H]NAD, read-out: IC50
[3] = L1210 cells, 10 Gy x-rays, class symbols

| IC50 [1, 2] | SMILES | also measured |
| --- | --- | --- |
| 2550 nM | O=C1NCCc2c(NCc3ccccc3)cccc21 [Example X, 3,4-Dihydro-5-[(phenylmethyl)amino]-1(2H)-isoquinolinone] |  |
| 80 nM | COc1cccc2c(=O)[nH]nc(C)c12 [XLII, 5-Methoxy-4-methyl-1(2H)phthalazinone] |  |
| 420 nM | COc1cccc2c1CCNC2=O [Example V, 3,4-Dihydro-5-methoxy-1(2H)-isoquinolinone] |  |
| 2120 nM | COc1cccc2c(=O)[nH]c(-c3ccccc3)cc12 [Example XX, 5-Methoxy-3-phenyl-1(2H)-isoquinolinone] |  |
| 1550 nM | CSC1=NCCc2c(C)cccc21 [XIX, 3,4-Dihydro-5-methyl-1-(methylthio)-isoquinoline] |  |
| 240 nM | Nc1cccc2c(=O)[nH]ccc12 [Example VIII, 5-Amino-1(2H)-isoquinolinone] | Shoulder Modification (% Reduction in DQ) (V79 cells): - (1-14%) |
| 580 nM | COc1cccc2c(=O)[nH]ccc12 [XIV, 5-Methoxy-1(2H)-isoquinolinone] |  |
| 740 nM | Cc1cccc2c1CC(C)NC2=O (stereo not shown) [XVIII, 3,4-Dihydro-3,5-dimethyl-1(2H)-isoquinolinone] |  |
| 580 nM | COc1cccc2c1CCN=C2SC [XVII, 3,4-Dihydro-5-methoxy-1-(methylthio)-isoquinoline] |  |
| 820 nM | O=C1NCCc2c(OCCN3CCCCC3)cccc21 [XXXIII, 3,4-Dihydro-5-[2-(1-piperidinyl)ethoxy]-1(2H)-isoquinolinone] |  |
| 1000 nM | CCN(CC)CC(O)COc1cccc2c1CCNC2=O (stereo not shown) [XXX] |  |
| 56700 nM | CC(=O)Nc1cccc2c1CCNC2=O [Example XI, N-(1,2,3,4-Tetrahydro-1-oxo-5-isoquinolinyl)acetamide] |  |
| 110 nM | CCCOc1cccc2c1CCNC2=O [XXXVI, 3,4-Dihydro-5-propoxy-1(2H)-isoquinolinone] |  |
| 100 nM | O=C1NCCc2c(O)cccc21 [Example II, 3,4-Dihydro-5-hydroxy-1(2H)-isoquinolinone] | Shoulder Modification (% Reduction in DQ) (V79 cells): + (15-29%); Frequency of Unrepaired Strand Breaks (L1210 cells; [3]): ++ (201-300); In Vivo Radiosensitizing Activity (KHT fibrosarcoma tumors): + |
| 310 nM | O=C1NCCc2c(Cl)cccc21 [XVI, 5-Chloro-3,4-dihydro-1(2H)-isoquinolinone] |  |
| 600 nM | O=C1NCCc2c(OCCc3ccccc3)cccc21 [XLI, 3,4-Dihydro-5-(phenylethoxy)-1(2H)-isoquinolinone] |  |
| 830 nM | O=C1NCCc2c(OCCCN3CCCCC3)cccc21 [Example XXVII, 3,4-Dihydro-5-[3-(1-piperidinyl)propoxy]-1(2H)-isoquinolinone] |  |
| 2110 nM | CC(=O)Oc1cccc2c1CCNC2=O [Example VI, 5-(Acetyloxy)-3,4-dihydro-1(2H)-isoquinolinone] |  |
| 270 nM | O=C1NCCc2c(OC[C@@H](O)CN3CCCCC3)cccc21 [L, (S)-3,4-Dihydro-5-[2-hydroxy-3-(1-piperidinyl)propoxy]-1(2H)-isoquinolinone] |  |

| IC50 [1, 2] | SMILES | also measured |
| --- | --- | --- |
| 340 nM | O=C1NCCc2c(OCC(O)Cc3ccccc3)cccc21 (stereo not shown) [Example XL, 3,4-Dihydro-5-(2-hydroxy-3-phenylpropoxy)-1(2H)-isoquinolinone] |  |
| 660 nM | Nc1c[nH]c(=O)c2ccccc12 [Example XXV, 4-Amino-1(2H)-isoquinolinone monohydrochloride] |  |
| 970 nM | CN(C)COc1cccc2c1CCNC2=O [XIII] |  |
|  | O=C1NCCc2c(OCCCCN3CCCCC3)cccc21 [XXXIV, 3,4-Dihydro-5-[4-(1-piperidinyl)butoxy]-1(2H)-isoquinolinone] | IC50 [1]: 800 nM |
| 1000 nM | CCc1cccc2c1CCNC2=O [XV, 5-Ethyl-3,4-dihydro-1(2H)-isoquinolinone] | Shoulder Modification (% Reduction in DQ) (V79 cells): - (1-14%); Frequency of Unrepaired Strand Breaks (L1210 cells; [3]): + (101-200) |
| 200 nM | CNCC(O)COc1cccc2c1CCNC2=O (stereo not shown) [XXXI, 3,4-Dihydro-5-[2-hydroxy-3-(methylamino)propoxy]-1(2H)-isoquinolinone] |  |
| 1500 nM | COCC(O)COc1cccc2c1CCNC2=O (stereo not shown) [XXXVIII, 3,4-Dihydro-5-(2-hydroxy-3-methoxypropoxy)-1(2H)-isoquinolinone] |  |
| 320 nM | O=C1NCCc2c(OCC(O)CN3CCCCC3)cccc21 (stereo not shown) [Example IV, 3,4-Dihydro-5-[2-hydroxy-3-(1-piperidinyl)propoxy]-1(2H)-isoquinolinone] | Shoulder Modification (% Reduction in DQ) (V79 cells): +++ (≥45%) |
| 650 nM | O=C1NCCc2c(OCC(O)COc3ccccc3)cccc21 (stereo not shown) [XXXIX, 3,4-Dihydro-5-(2-hydroxy-3-phenoxypropoxy)-1(2H)-isoquinolinone] |  |
| 2600 nM | CCOc1cccc2c1CCNC2=O [XXXV, 5-Ethoxy-3,4-dihydro-1(2H)-isoquinolinone] |  |
| 1500 nM | O=C1NCCc2c(OCC(O)CN3CCOCC3)cccc21 (stereo not shown) [XXIX] |  |
| 410 nM | Cl.Nc1cccc2c1CCNC2=O [IX, 5-Amino-3,4-dihydro-1(2H)-isoquinolinone, monohydrochloride] | Shoulder Modification (% Reduction in DQ) (V79 cells): - (1-14%); Frequency of Unrepaired Strand Breaks (L1210 cells; [3]): +++ (301-400) |
|  | Cc1cccc2c1CCNC2=O [Example XII, 3,4-Dihydro-5-methyl-1(2H)-isoquinolinone] | IC50 [1]: 160 nM; Shoulder Modification (% Reduction in DQ) (V79 cells): ++ (30-44%); % Reduction in Dq (37°) (V79 cells; numeric): 30%; Frequency of Unrepaired Strand Breaks (L1210 cells; [3]): ++++ (401-500); Frequency of Unrepaired Strand Breaks (L1210 cells; numeric): 470 Rad. Eq.; In Vivo Radiosensitizing Activity (KHT fibrosarcoma tumors): +; Enhancement Ratio (in vivo) (KHT fibrosarcoma tumors; in vivo): 1.4-1.5; Optimum time preirradiation (KHT fibrosarcoma tumors; time of administration before irradiation): 2 to 3 h |
| 61 nM | O=c1[nH]cc(Br)c2c(O)cccc12 [Example XXVI, 4-Bromo-5-hydroxy-1(2H)-isoquinolinone] |  |
| 330 nM | CNCCCOc1cccc2c1CCNC2=O [XXXII, 3,4-Dihydro-5-[3-methylamino)propoxy]-1(2H)-isoquinolinone hydrochloride] |  |
| 770 nM | O=C1NCCc2c(OCC(O)CN3CCCC3)cccc21 (stereo not shown) [XXVIII, 3,4-Dihydro-5-[2-hydroxy-3-(1-pyrrolidinyl)propoxy]-1-(2H)-isoquinolinone] |  |
| 5200 nM | O=C1NCCc2c(OCc3ccccc3)cccc21 [Example VII, 3,4-Dihydro-5-(phenylmethoxy)-1(2H)-isoquinolinone] |  |
| 360 nM | Oc1ncc(Br)c2ccccc12 [XXIII, 4-Bromo-1-isoquinolinol] |  |
| 330 nM | O=C1NCCc2c(OC[C@H](O)CN3CCCCC3)cccc21 [XLIX, (R)-3,4-Dihydro-5-[2-hydroxy-3-(1-piperidinyl)propoxy]-1(2H)-isoquinolinone] |  |

| SMILES | IC50 [1, 2] | also measured |
| --- | --- | --- |
| CCCCOc1cccc2c1CCNC2=O [XXXVII, 5-Butoxy-3,4-dihydro-1(2H)-isoquinolinone] | 6000 nM |  |
